{"source": "patent US20150051242A1", "about": "“RAFAMYCIN ANALOGS AND METHODS FOR MAKING SAME” (HANGZHOU ZYLOX PHARMA CO., LTD, priority 2012, published 2015)", "key": {"mTOR": {"target": "T1, mTOR (Homo sapiens, UniProt P42345+P62942)", "T1 construct": "purchased Invitrogen (mTOR); SinoBiological (FKBP12) PV4753 (mTOR); 10268-H08E (FKBP12)", "T1 sequence (P42345 1360-2549 limits assumed)": "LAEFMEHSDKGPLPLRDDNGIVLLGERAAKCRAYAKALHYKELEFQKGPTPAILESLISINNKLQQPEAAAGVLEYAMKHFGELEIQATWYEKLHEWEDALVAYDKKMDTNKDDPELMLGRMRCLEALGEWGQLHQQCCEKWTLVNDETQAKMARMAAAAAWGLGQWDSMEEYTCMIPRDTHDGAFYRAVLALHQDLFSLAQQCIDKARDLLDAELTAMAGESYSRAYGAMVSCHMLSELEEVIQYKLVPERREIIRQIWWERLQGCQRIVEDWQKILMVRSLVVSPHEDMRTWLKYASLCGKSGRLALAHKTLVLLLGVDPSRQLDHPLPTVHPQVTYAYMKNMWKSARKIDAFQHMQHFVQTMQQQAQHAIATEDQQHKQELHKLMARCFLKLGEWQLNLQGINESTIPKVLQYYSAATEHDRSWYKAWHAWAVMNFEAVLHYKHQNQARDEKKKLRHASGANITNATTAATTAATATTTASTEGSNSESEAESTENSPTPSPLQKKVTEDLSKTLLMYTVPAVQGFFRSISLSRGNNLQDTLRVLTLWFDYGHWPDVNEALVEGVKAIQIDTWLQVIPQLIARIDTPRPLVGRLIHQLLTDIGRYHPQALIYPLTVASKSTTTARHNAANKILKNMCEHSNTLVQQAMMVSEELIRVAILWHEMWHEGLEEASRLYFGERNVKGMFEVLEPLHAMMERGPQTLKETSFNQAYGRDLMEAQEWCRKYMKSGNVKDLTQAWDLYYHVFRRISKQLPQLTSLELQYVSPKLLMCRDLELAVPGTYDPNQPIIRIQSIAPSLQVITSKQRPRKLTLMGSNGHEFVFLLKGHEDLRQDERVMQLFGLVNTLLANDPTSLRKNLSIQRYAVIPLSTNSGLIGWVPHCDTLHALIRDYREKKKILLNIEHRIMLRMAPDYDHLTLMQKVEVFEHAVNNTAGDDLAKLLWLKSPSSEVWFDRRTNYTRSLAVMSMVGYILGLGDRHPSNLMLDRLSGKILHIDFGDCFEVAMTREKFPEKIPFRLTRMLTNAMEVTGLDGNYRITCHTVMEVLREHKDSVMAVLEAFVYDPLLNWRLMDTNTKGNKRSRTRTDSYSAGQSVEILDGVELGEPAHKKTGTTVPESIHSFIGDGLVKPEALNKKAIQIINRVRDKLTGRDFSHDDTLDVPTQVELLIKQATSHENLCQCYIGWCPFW", "T1 sequence (P62942 whole entry)": "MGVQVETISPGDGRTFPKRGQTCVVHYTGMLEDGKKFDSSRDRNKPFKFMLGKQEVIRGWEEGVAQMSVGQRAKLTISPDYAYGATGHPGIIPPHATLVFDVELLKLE", "experiment": "mTOR TR-FRET kinase assay (phosphorylation of GFP-4E-BP1)", "assay_type": "biochemical", "details": "10 μM ATP, 0.4 μM GFP-4E-BP1, read-out: IC50 mTOR inhibition", "text": "Now we use a Terbium labeled anti-phosphorylated 4E--BP1 antibody to detect phosphorylation of the GFP-labeled substrate by mTOR. This TR-FRET based assay can be used to screen inhibitors of mTOR in vitro.\nMaterials: Assay buffer components: 1M HEPES pH7.5, GIBCO, Cat#15630: 1M MgCl2, Sigma, Cat# M1028: 0.5M EDTA, GIBCO, Cat# 15575: DTT, Sigma Cat# 43819: EGTA, Sigma Cat# E3889; Triton X100, Sigma, Cat# T8787: USA CALBIOCHEM Cat# 126575.\nEnzyme, substrate and detection reagents: mTOR: Invitrogen, Cat# PV4753: GFP-4E-BPI: Invitrogen, Cat# PV4759: FKBP12: SinoBiological, Cat# 10268-H08E: ATP: Sigma Cat# A26209: Tb-anti-p4E-BP1: Invitrogen, Cat# PV4755: TR-FRET Dilution buffer Invitrogen, Cat# PV3574.\nPlate: Compounds preparation plate: 384-well, Corning cat# 3657: Assay plate: black low volume 384 well microtiter plate (Greiner Bio-One, Cat# 784076).\nProcedure: Compounds dosage gradient solution preparation:\nCompounds were 3-fold serial diluted in 100% DMSO in a microtiter plate (Corning 3674) at 11 different concentrations in the range of 100 μM to 1.7 nM (100 μM, 33 μM, 11 μM, 3.7 μM, 1.2 μM, 411 nM, 137 nM, 46 nM, 15 nM, 5 nM, 1.7 nM). Then the diluted compounds in 100% DMSO was 10-fold diluted with ddH2O, so the compounds were in 10% DMSO.\n0.5 μl diluted compounds in 10% DMSO was pipetted into a black low volume 384 well microtiter plate (Greiner Bio-One, Frickenhausen, Germany, cat# 784076): 2 μl of a solution of mTOR in aqueous assay buffer |50 mM HEPES/NaOH pH 7.5. mM MgCl12, 1.0 mM dithiothreitol, 1 mM EGTA, 0.01% (v/v) Triton-X100 (Sigma), 0.01% (w/v| bovine serum albumine (BSA)| (mTOR, 0.3125 ng/μl=>final cone, in the 5 μl assay volume is 0.125 ng/μl) were added to the assay plate and the compound-enzyme mixture was incubated for 15 min at 22° C. to allow pre-binding of the test compounds to the enzyme before the start of the kinase reaction:\nThe kinase reaction was started by the addition of 2.5 μl of a solution of ATP (ATP, […]=>final conc., in the 5 μl assay volume is 10 μM) and substrate (0.8 μM=>final conc. in the 5 μl assay volume is 0.4 μM) in assay buffer and the resulting mixture was incubated for 18 min at 22° C.\nThe reaction was stopped by the addition of 5 ul of 30 mM EDTA (EDTA, 30 mM=> final cone, in the 10 ∥l assay volume is 15 mM) and 4 nM Tb-chelate labeled anti-4E-BP1 |pT46| phosphospecific antibody |Invitrogen Cat# PV4755| (Tb-labeled antibody, 4 nM=>final conc. in the 10 μl assay volume is 2 nM) in TR-FRET dilution buffer, the resulting mixture was incubated 1 hour at 22° C. to allow the formation of complex of the phosphorylated substrate and the Tb-chelate labeled antibody.\nThe amount of phosphorylated substrate was evaluated by measurement of the resonance energy transfer from the Tb-chelate to the GFP. Therefore, the fluorescence emission at 495 nmn and 520 nm after excitation at 340 nm was measured on envision 2104 multilabel reader (Perkin-Elmer). The ratio of the emission at 520 nm and at 495 nm was taken as the measure for the amount of phosphorylated substrate. The data were normalised (enzyme reaction without inhibitor=0% inhibition, all other assay components but no enzyme=100% inhibition) and IC50 values were calculated by a 4 parameter fit (equation (1)) using IDBS XLfit software (ID Business Solutions Ltd., UK)\nY=Bottom+(TOP−Bottom)/(1+10̂((LogIC50−X)*hillslope)) equation (1)\nIn this equation, Y was the normalized % inhibition value. X was the log value of the test compound concentration. IC50 was the concentration of compound where half of maximal inhibition was achieved."}, "[1]": {"tested_on": "HCT-116 human colon cancer", "details": "9 mg/kg/day p.o., after 22 days treatment, compared to vehicle control", "protocol": "Animals: Balb/c nude mice, female, 6-8 weeks, weighing approximately 18-20 g. A total of 70 will be needed for the study, which will be purchased from Vital River Laboratory Animal Technology Co. Ltd.\nTumor Inoculation: Each mouse will be inoculated subculaneously at the right flank with HCT-116 tumor cells (3×106) in 0.1 ml of PBS for tumor development. The treatments will be started when the tumor size reaches approximately ˜150 mm3.\nAssignment to Groups: Before commencement of treatment, all animals will be weighed and the tumor volumes will be measured. […]\nEndpoints: The major endpoint is to see if the tumor growth can be delayed or mice can be cured. Tumor sizes will be measured twice weekly in two dimensions using a caliper, and the volume will be expressed in mm3 using the formula: V=0.5 a×b2 where a and b are the long and short diameters of the tumor, respectively. […] T-C is calculated with T as the median time (in days) required for the treatment group tumors to reach a predetermined size (e.g., 500 mm3), and C is the median time (in days) for the control group tumors to reach the same size. […]\nStatistical Analysis: for comparison between two groups, an independent sample t-test will be used. […] The potential synergistic effect between treatments will be analyzed by LSD or Dunnett's T3. All data will be analyzed using SPSS 17.0 software, p<0.05 is considered to be statistically significant."}}, "data": [{"molecule": "CO[C@H]1C[C@@H]2CC[C@@H](C)[C@@](O)(O2)C(=O)C(=O)N2CCCC[C@H]2C(=O)O[C@H]([C@H](C)C[C@@H]2CC[C@@H](OCc3cn(C45CC6CC(CC(C6)C4)C5)nn3)[C@H](OC)C2)CC(=O)[C@H](C)/C=C(\\C)[C@@H](O)[C@@H](OC)C(=O)[C@H](C)C[C@H](C)/C=C/C=C/C=C/1C", "note": "[Compound A3]", "values": [{"measurement": "IC50", "setting": "mTOR", "value": "> 10", "unit": "µM"}]}, {"molecule": "CO[C@H]1C[C@@H]2CC[C@@H](C)[C@@](O)(O2)C(=O)C(=O)N2CCCC[C@H]2C(=O)O[C@H]([C@H](C)C[C@@H]2CC[C@@H](OCc3cn(-c4ccc(C(=O)O)cc4)nn3)[C@H](OC)C2)CC(=O)[C@H](C)/C=C(\\C)[C@@H](O)[C@@H](OC)C(=O)[C@H](C)C[C@H](C)/C=C/C=C/C=C/1C", "note": "[Compound A4]", "values": [{"measurement": "IC50", "setting": "mTOR", "value": 6.6, "unit": "µM"}]}, {"molecule": "CO[C@H]1C[C@@H]2CC[C@@H](C)[C@@](O)(O2)C(=O)C(=O)N2CCCC[C@H]2C(=O)O[C@H]([C@H](C)C[C@@H]2CC[C@@H](OCc3c[nH]nn3)[C@H](OC)C2)CC(=O)[C@H](C)/C=C(\\C)[C@@H](O)[C@@H](OC)C(=O)[C@H](C)C[C@H](C)/C=C/C=C/C=C/1C", "note": "[Compound A6]", "values": [{"measurement": "IC50", "setting": "mTOR", "value": 9.14, "unit": "µM"}]}, {"molecule": "COC1CC2CCC(C)C(O)(O2)C(=O)C(=O)N2CCCCC2C(=O)OC(C(C)CC2CCC(OCc3cn(CCO)nn3)C(OC)C2)CC(=O)C(C)C=C(C)C(O)C(OC)C(=O)C(C)CC(C)C=CC=CC=C1C", "note": "(centres unmarked) [Compound A9]", "values": [{"measurement": "IC50", "setting": "mTOR", "value": "> 10", "unit": "µM"}]}, {"molecule": "CO[C@H]1C[C@@H]2CC[C@@H](C)[C@@](O)(O2)C(=O)C(=O)N2CCCC[C@H]2C(=O)O[C@H]([C@H](C)C[C@@H]2CC[C@@H](OCc3cn(CC(=O)O)nn3)[C@H](OC)C2)CC(=O)[C@H](C)/C=C(\\C)[C@@H](O)[C@@H](OC)C(=O)[C@H](C)C[C@H](C)/C=C/C=C/C=C/1C", "note": "[Compound A12]", "values": [{"measurement": "IC50", "setting": "mTOR", "value": "> 10", "unit": "µM"}]}, {"molecule": "CO[C@H]1C[C@@H]2CC[C@@H](C)[C@@](O)(O2)C(=O)C(=O)N2CCCC[C@H]2C(=O)O[C@H]([C@H](C)C[C@@H]2CC[C@@H](OCc3cn(-c4ccc(N5CCN(C)CC5)cc4)nn3)[C@H](OC)C2)CC(=O)[C@H](C)/C=C(\\C)[C@@H](O)[C@@H](OC)C(=O)[C@H](C)C[C@H](C)/C=C/C=C/C=C/1C", "note": "[Compound A13]", "values": [{"measurement": "IC50", "setting": "mTOR", "value": "> 10", "unit": "µM"}]}, {"molecule": "COC1CC2CCC(C)C(O)(O2)C(=O)C(=O)N2CCCCC2C(=O)OC(C(C)CC2CCC(OCc3cn(Cc4ccc(F)cc4)nn3)C(OC)C2)CC(=O)C(C)C=C(C)C(O)C(OC)C(=O)C(C)CC(C)C=CC=CC=C1C", "note": "(centres unmarked) [Compound A14]", "values": [{"measurement": "IC50", "setting": "mTOR", "value": "> 10", "unit": "µM"}]}, {"molecule": "CO[C@H]1C[C@@H]2CC[C@@H](C)[C@@](O)(O2)C(=O)C(=O)N2CCCC[C@H]2C(=O)O[C@H]([C@H](C)C[C@@H]2CC[C@@H](OCCO)[C@H](OC)C2)CC(=O)[C@H](C)/C=C(\\C)[C@@H](O)[C@@H](OC)C(=O)[C@H](C)C[C@H](C)/C=C/C=C/C=C/1C", "note": "[Compound A15, reference compound]", "values": [{"measurement": "IC50", "setting": "mTOR", "value": 0.00643, "unit": "µM"}, {"measurement": "tumor growth inhibition", "setting": "[1]", "value": 63, "unit": "%"}]}, {"molecule": "CO[C@H]1C[C@@H]2CC[C@@H](C)[C@@](O)(O2)C(=O)C(=O)N2CCCC[C@H]2C(=O)O[C@H]([C@H](C)C[C@@H]2CC[C@H](n3cc(CO)nn3)[C@H](OC)C2)CC(=O)[C@H](C)/C=C(\\C)[C@@H](O)[C@@H](OC)C(=O)[C@H](C)C[C@H](C)/C=C/C=C/C=C/1C", "note": "[Compound B2]", "values": [{"measurement": "IC50", "setting": "mTOR", "value": 0.0184, "unit": "µM"}]}, {"molecule": "CO[C@H]1C[C@@H]2CC[C@@H](C)[C@@](O)(O2)C(=O)C(=O)N2CCCC[C@H]2C(=O)O[C@H]([C@H](C)C[C@@H]2CC[C@H](n3cc(-c4cccnc4)nn3)[C@H](OC)C2)CC(=O)[C@H](C)/C=C(\\C)[C@@H](O)[C@@H](OC)C(=O)[C@H](C)C[C@H](C)/C=C/C=C/C=C/1C", "note": "[Compound B9]", "values": [{"measurement": "IC50", "setting": "mTOR", "value": 0.0272, "unit": "µM"}]}, {"molecule": "CO[C@H]1C[C@@H]2CC[C@@H](C)[C@@](O)(O2)C(=O)C(=O)N2CCCC[C@H]2C(=O)O[C@H]([C@H](C)C[C@@H]2CC[C@H](n3cc(-c4ccc(C(=O)O)cc4)nn3)[C@H](OC)C2)CC(=O)[C@H](C)/C=C(\\C)[C@@H](O)[C@@H](OC)C(=O)[C@H](C)C[C@H](C)/C=C/C=C/C=C/1C", "note": "[Compound B11]", "values": [{"measurement": "IC50", "setting": "mTOR", "value": 0.446, "unit": "µM"}]}, {"molecule": "CO[C@H]1C[C@@H]2CC[C@@H](C)[C@@](O)(O2)C(=O)C(=O)N2CCCC[C@H]2C(=O)O[C@H]([C@H](C)C[C@@H]2CC[C@H](n3cc(COc4ccc(S(N)(=O)=O)cc4)nn3)[C@H](OC)C2)CC(=O)[C@H](C)/C=C(\\C)[C@@H](O)[C@@H](OC)C(=O)[C@H](C)C[C@H](C)/C=C/C=C/C=C/1C", "note": "[Compound B12]", "values": [{"measurement": "IC50", "setting": "mTOR", "value": 0.0352, "unit": "µM"}]}, {"molecule": "CO[C@H]1C[C@@H]2CC[C@@H](C)[C@@](O)(O2)C(=O)C(=O)N2CCCC[C@H]2C(=O)O[C@H]([C@H](C)C[C@@H]2CC[C@H](n3cc(-c4ccc(S(N)(=O)=O)cc4)nn3)[C@H](OC)C2)CC(=O)[C@H](C)/C=C(\\C)[C@@H](O)[C@@H](OC)C(=O)[C@H](C)C[C@H](C)/C=C/C=C/C=C/1C", "note": "[Compound B13]", "values": [{"measurement": "IC50", "setting": "mTOR", "value": 0.029, "unit": "µM"}]}]}
